{
  "source": "patent US11834663B2",
  "about": "“Fibrotic treatment” (Monash University, priority 2015, dated 2023)",
  "system": "Ang II-infused WT mice",
  "assay": "Angiotensin II infusion prevention model: systolic blood pressure (tail-cuff)",
  "type": "in vivo, mouse",
  "settings": "adult WT mice, Ang II 800 ng/kg/min s.c. + HFI-419 500 ng/kg/min, 4 weeks; FIG. 1",
  "method": "There are 8 different sets of in vivo experiments in this study: • A) Phenotypic characterisation of the heart and blood vessels in global IRAP knockout mice and their WT controls treated for 4 weeks with Angiotensin (Ang) II (800 ng/kg/min; s.c.) where mouse hearts and blood vessels were compared to tissue obtained from young WT and IRAP^−/− mice treated with saline. • B) Prevention of Ang II-induced changes in the cardiovascular system following IRAP inhibitor treatment. […]\nAll mice which underwent surgery were anaesthetized with Isoflurane (Isorrane) (5% induction and 2.5% maintenance) and an incision made in the midscapular region through which osmotic minipumps (Alzet model 2004, Alza Corp) were inserted for subcutaneous drug administration. […] Systolic blood pressure (SBP) was measured fortnightly using non-invasive tail-cuff plethysmography apparatus (MC4000 Blood Pressure Analysis System, Hatteras Instrument Inc) before drug treatment (week 0), at week 2 of treatment and end of treatment (week 4). At the end of drug treatment, body weight of mice was recorded. […]",
  "data": [
    {"compound": "CCOC(=O)C1=C(NC(C)=O)Oc2cc(O)ccc2C1c1cccnc1", "note": "(stereo not shown) [HFI-419]", "values": [
      {"measurement": "Ang II-induced increase in systolic blood pressure", "value": "attenuates"}
    ]}
  ]
}
